Assays:
E. coli [1] = test: Kinetics of bactericidal effect (time-kill curve), syringes technique; format: cell-based, Escherichia coli
Description: (§1) Syringes technique: Bacteria cells were incubated at room temperature under anaerobic conditions in LB Bruce growth substance syringes. To ensure anaerobic conditions, Argon gas (UHP) was bubbled through a sterile filter into a syringe filled with a growth substance. Cu^1+ was formed in situ, the process was started with de-aerating the aqueous solutions containing a mixture of CuSO4 as the source for Cu^2+ ions, metallic copper and Acetonitrile as a stabilizing ligand, prior to microorganisms insertion, according to the following reaction:
(§2) Reference bacteria were incubated under the same condition in a growth substance containing: Metallic copper (4×2×0.1 cm), Acetonitrile, CuSO4 or AgNO3.
(§3) Bacteria count was measured at time intervals using a series of dilutions, and colonies count on LB Agar was incubated at 37° C.
Because of the chemical similarity of copper and silver as well as their clinical use as antibacterial agents, their antibacterial effect over time was compared. The survival of test bacteria in each syringe was sampled in time intervals of 1, 20, 40 and 85 hours from inoculation. Time-kill curve was constructed by plotting the viable cell count of bacteria (Δ log 10 cfu/ml) over time (FIG. 1).

[2] = tested on: Escherichia coli strain MG1655; test: Disc diffusion antibiotic sensitivity test; format: cell-based; conditions: for Estimate of the sterile area beyond the disk: aerobic, 37° C., 24 h incubation, 6 mm disk
Description: 1. Introduction: • The antibacterial effect was measured by an agar disk diffusion method. Escherichia coli strain MG1655 was used as a model organism. Whatman's 6 mm disks were used. The incubation of Petri dishes (with disks) was done in aerobic conditions, at 37° C. After 24 h incubation, the radiuses of sterile zones on agar were measured.
2.1 Preparation of bacterial suspension • 100 μl of bacterial suspension (containing 10^4-10^5 bacterial cells per plate) was used for testing. Cells of E. coli MG1655 were grown overnight as a starter on LB (Luria broth) media at 37° C. with a shaker. After 12-18 hhours incubation, 100 μL suspension were added to 9.9 mL of fresh LB media. Bacterial cells designated for testing were grown in fresh LB at 37° C. with a shaker for 2-3 h to final OD (600 nm) 0.2-0.4. This cell suspension was diluted by a factor of 100 using 0.9% NaCl, and 100 μL of the diluted suspension was distributed on agar surface before adding a disk.
2.2 Preparation of Petri dishes • LB agar was prepared according to a standard procedure, autoclaved and stored afterwards up to 3 h at 55° C. The needed substances (like ascorbic acid) were added into agar before pouring into dishes. 15 ml agar was added to each 90 mm Petri dish. Dishes were dried for at least 1 h in a biosafety cabinet by sterile air flow.
2.3 Formulation application • To the preliminary dried dishes (a described in 2.2) a freshly prepared bacterial culture was added (as described in 2.1). Immediately after absorption of the suspension into the agar, a disk was placed at the center of the dish. In case where metallic copper was tested, it was placed first in the form of a small circular wire at the dish center and pressed into the agar, and covered by a disk afterwards. 10 μl of a Cu^2+ solution was placed on the disk.
2.4 Measurement of the sterile zone size • All dishes after 24 h incubation (as described in 2.1) were photographed and the images are analyzed. The absolute size of the sterile zones was estimated in comparison with the disk size (6 mm).
The results were presented as sterile area in mm^2 (FIG. 5 and Table 2) or as radiuses in mm (FIGS. 7-10) of the sterile zones on agar.

E. coli [3] = test: Syringes technique, anaerobic incubation of E. coli with copper ions (vitality / MIC); format: cell-based, Escherichia coli
Description: as §1
One must notice that each Cu^2+ results in two Cu^1+ ions.
as §2, §3
The vitality of Escherichia coli, Staphylococcus aureus (bacteria) and Saccharomyces cerevisiae (yeast) was tested in anaerobic conditions using syringe technique and Petri dish technique.
The MIC of Cu^1+ and Cu^2+ was measured by using four syringes with decreasing concentration of the copper ions from 8 to 2 mM.
MIC of Cu^1+ found to be around 4 mM where the MIC of Cu^2+ was between 6 mM and 8 mM.

E. coli MG 1655 = test: Petri dish technique, LB agar with ascorbic acid and CuSO4 covered by oil; format: cell-based, Escherichia coli; conditions: for Vitality of E. coli MG 1655: 24 h
Description: As control groups, bacteria were incubated under the same conditions without ascorbic acid, or without CuSO4. In this series of experiments ascorbic acid acted as the reducing agent according to the following reaction: 2Cu^2++ascorbic acid→2Cu^++dehydro ascorbic acid (2) The viability of bacteria was detected by the presence or absence of colonies.
The experiment was repeated using a different reducing agent (ascorbic acid instead of metal copper with acetonitrile) and different technique of growing bacteria on Petri dishes with LB agar. The ascorbic acid embedded in the agar reduces copper as was shown in Equation 2.

S. aureus = test: Petri dish technique, LB agar with ascorbic acid; format: cell-based, Staphylococcus aureus; conditions: 24 h
Description: Petri dish technique: Bacteria were incubated at 37° C. in Petri dish with LB Agar containing 20 mM ascorbic acid and 0.05-3.5 mM CuSO4 covered by oil, to prevent air oxygen penetration. As control groups, bacteria were incubated under the same conditions without ascorbic acid, or without CuSO4. In this series of experiments ascorbic acid acted as the reducing agent according to the following reaction: 2Cu^2++ascorbic acid→2Cu^++dehydro ascorbic acid (2) The viability of bacteria was detected by the presence or absence of colonies.
The MIC of Cu^1+ is measured by using Petri dishes with LB agar. The ascorbic acid embedded in the agar reduces copper as was shown in Equation 2.

Staphylococcus aureus = test: Growth kinetics in anaerobic conditions, syringe technique; format: cell-based
Description: as §1, §2, §3
When comparing with FIG. 2 it seems that the difference between the effect of Cu^1+ and Cu^2+ is more pronounced in gram (+) bacteria than in gram(−).

Saccharomyces cerevisiae = test: Viable cell count over time, syringes technique; format: cell-based
[4] = 4 mM ion, 24 h incubation, 0.5% (v/v) acetonitrile

## [Ag+] [Ag^1+, reference compound]
E. coli [1]; after 85 hours
  viable cells: no viable cells were found
[2]
  Estimate of the sterile area beyond the disk: 27.1 mm^2

## [Cu+] [Cu^1+]
E. coli [3]; 2 mM ion, 24 h incubation, 0.5% (v/v) acetonitrile
  presence or absence of E. coli colonies: ++ (a fully covered plate, estimated as 2×10^7 cfu/ml)
E. coli [3]; [4]
  number of colonies on the plate: 107 colonies
  presence or absence of E. coli colonies: ++ (a fully covered plate, estimated as 2×10^7 cfu/ml)
E. coli [3]; 6 mM ion, 24 h incubation, 0.5% (v/v) acetonitrile
  presence or absence of E. coli colonies: −
E. coli [3]; 6 mM ion, 24 h incubation, 0.5% (v/v) acetonitrile, listed as Cu^+2
  presence or absence of E. coli colonies: + (partially covered plate but still uncountable, estimated as 1×10^4 cfu/ml)
E. coli [3]; 8 mM ion, 24 h incubation, 0.5% (v/v) acetonitrile
  presence or absence of E. coli colonies: −
E. coli [3]; 24 h incubation, 0.5% (v/v) acetonitrile, syringes
  MIC: around 4 mM
E. coli [1]; 8 mM, 1 h incubation
  antibacterial potency compared with 8 mM and 16 mM Ag^+: more potent antibacterial agent
E. coli [1]; 20 hours after inoculation
  viable bacteria cells: no viable bacteria cell was found at all
E. coli [1]; after 1 h of incubation, anaerobic
  reduction of the initial bacteria inoculums: 7 log cfu/ml
E. coli [1]; after 85 hours
  live bacteria remaining in the syringe: 1 log cfu/ml
[2]
  Estimate of the sterile area beyond the disk: 359.3 mm^2
[2]; listed as Cu^2+
  Estimate of the sterile area beyond the disk: 25.9 mm^2
[2]; listed as Cu^+2
  Estimate of the sterile area beyond the disk: 25.9 mm^2
[2]; disk diffusion method
  improvement in the biocidal effect compared with Ag^1+ and Cu^2+: more than 10 times
E. coli MG 1655; 24 h after incubation
  bactericidal effect of reduced copper ions relative to Cu^2+: eight times higher
S. aureus; 0.05 mM with ascorbic acid 20 mM
  S. aureus vitality: ++ (a fully covered plate, estimated as 2×10^7 cfu/ml)
S. aureus; 0.1 mM with ascorbic acid 20 mM
  S. aureus vitality, number of colonies: 45
S. aureus; 0.3 mM with ascorbic acid 20 mM
  S. aureus vitality: −
Staphylococcus aureus
  bacteriostatic effect: very little bacteriostatic effect
  incubation time to depletion of bacterial count: ≤ 1 h
Saccharomyces cerevisiae
  susceptibility of the yeast compared with the bacteria studied: more susceptible

## O=S(=O)([O-])[O-].[Cu+2] [CuSO4]
E. coli MG 1655; Ascorbic acid 0 mM, CuSO4 3.0 mM
  Vitality of E. coli MG 1655: ++ (a fully covered plate, estimated as 2×10^7 cfu/ml)
E. coli MG 1655; Ascorbic acid 0 mM, CuSO4 4.0 mM
  Vitality of E. coli MG 1655: −
E. coli MG 1655; Ascorbic acid 20 mM, CuSO4 0.01 mM
  Vitality of E. coli MG 1655: ++ (a fully covered plate, estimated as 2×10^7 cfu/ml)
E. coli MG 1655; Ascorbic acid 20 mM, CuSO4 0.05 mM
  Vitality of E. coli MG 1655: −

## CC#N [acetonitrile]
E. coli [3]; preliminary tests, equals 0.5% V/V
  minimal effective concentration as stabilizing ligand: 0.1 M

## copper(II) gluconate [copper (II) gluconate]
[2]; in emulsifying base ointment with ascorbyl palmitate and 2% copper powder
  minimal recommended concentration of copper (II) gluconate: 1.25 % w/w

## O=C1O[C@H]([C@@H](O)CO)C(O)=C1O [Ascorbic acid, ascorbic acid, reference compound]
E. coli MG 1655; Ascorbic acid 20 mM, CuSO4 0 mM
  Vitality of E. coli MG 1655: ++ (a fully covered plate, estimated as 2×10^7 cfu/ml)
